The record followed here is patent US20040156869A1, “2-substituted quinazolin-4-ylamine analogues” (Neurogen Corporation, priority 2002, published 2004).

Molecules are shown by their SMILES. pKi: −log10 of the molar value.

The target in the assay is human capsaicin receptor (VR1) (Homo sapiens, UniProt Q8NER1). As to the kind of experiment: Capsaicin receptor binding assay ([3H]RTX competition, VR1-transfected HEK293 membranes).
Chain of human capsaicin receptor (VR1) (Q8NER1 whole entry): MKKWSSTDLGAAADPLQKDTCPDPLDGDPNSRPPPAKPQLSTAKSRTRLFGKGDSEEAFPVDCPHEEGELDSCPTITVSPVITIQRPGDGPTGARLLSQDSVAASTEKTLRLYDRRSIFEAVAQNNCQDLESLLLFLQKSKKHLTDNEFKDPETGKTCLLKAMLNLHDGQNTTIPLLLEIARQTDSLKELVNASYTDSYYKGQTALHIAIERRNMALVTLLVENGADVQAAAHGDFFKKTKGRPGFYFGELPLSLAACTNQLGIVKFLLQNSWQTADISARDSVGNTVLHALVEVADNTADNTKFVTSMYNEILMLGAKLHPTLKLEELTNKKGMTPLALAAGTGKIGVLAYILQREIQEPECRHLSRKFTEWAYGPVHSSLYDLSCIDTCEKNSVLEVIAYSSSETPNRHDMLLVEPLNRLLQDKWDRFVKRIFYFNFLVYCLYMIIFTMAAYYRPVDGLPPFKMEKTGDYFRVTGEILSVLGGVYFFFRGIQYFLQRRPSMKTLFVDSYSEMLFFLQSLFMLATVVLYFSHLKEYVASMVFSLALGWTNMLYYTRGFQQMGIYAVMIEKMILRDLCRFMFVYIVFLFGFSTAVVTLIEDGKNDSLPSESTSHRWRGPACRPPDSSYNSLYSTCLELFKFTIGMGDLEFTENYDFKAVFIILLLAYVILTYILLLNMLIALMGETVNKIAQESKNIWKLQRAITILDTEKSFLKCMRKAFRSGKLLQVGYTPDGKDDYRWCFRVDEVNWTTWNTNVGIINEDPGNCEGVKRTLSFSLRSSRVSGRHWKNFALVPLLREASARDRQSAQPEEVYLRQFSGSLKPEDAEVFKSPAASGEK
For the molecule `C=CCN(C)Cc1nc(Nc2ccc(C(F)(F)F)cc2)c2ncc(-c3ncccc3C(F)(F)F)cc2n1` [Compound 662, [2-[(Allyl-methyl-amino)-methyl]-7-(3-trifluoromethyl-pyridin-2-yl)-pyrido[3,2-d]pyrimidin-4-yl]-(4-trifluoromethyl-phenyl)-amine], the pKi is over 6.00.

For `C=CCN(CC=C)Cc1nc(Nc2ccc(C(F)(F)F)cc2)c2ncc(-c3ncccc3C(F)(F)F)cc2n1` [Compound 663, [2-Diallylaminomethyl-7-(3-trifluoromethyl-pyridin-2-yl)-pyrido[3,2-d]pyrimidin-4-yl]-(4-trifluoromethyl-phenyl)-amine], the pKi is over 6.00.

`CCCN(CCC)Cc1nc(Nc2ccc(C(F)(F)F)cc2)c2ncc(-c3ncccc3C(F)(F)F)cc2n1` [Compound 664, [2-Dipropylaminomethyl-7-(3-trifluoromethyl-pyridin-2-yl)-pyrido[3,2-d]pyrimidin-4-yl]-(4-trifluoromethyl-phenyl)-amine] gave a pKi of over 6.00.

`CCCN(Cc1nc(Nc2ccc(C(F)(F)F)cc2)c2ncc(-c3ncccc3C(F)(F)F)cc2n1)CC1CC1` [Compound 665, [2-[(Cyclopropylmethyl-propyl-amino)-methyl]-7-(3-trifluoromethyl-pyridin-2-yl)-pyrido[3,2-d]pyrimidin-4-yl]-(4-trifluoromethyl-phenyl)-amine]: the pKi is over 6.00.

Molecule `CCCCN(CCCC)Cc1nc(Nc2ccc(C(F)(F)F)cc2)c2ncc(-c3ncccc3C(F)(F)F)cc2n1` [Compound 666, [2-Dibutylaminomethyl-7-(3-trifluonmethyl-pyridin-2-yl)-pyrido[3,2-d]pyrimidin-4-yl]-(4-trifluoromethyl-phenyl)-amine] gave a negative logarithm of the Ki (pKi) of over 6.00.

Turning to `C=C(C)CN(CC)Cc1nc(Nc2ccc(C(F)(F)F)cc2)c2ncc(-c3ncccc3C(F)(F)F)cc2n1` [Compound 667, [2-{[Ethyl-(2-methyl-allyl)-amino]-methyl}-7-(3-trifluoromethyl-pyridin-2-yl)-pyrido[3,2-d]pyrimidin-4-yl]-(4-trifluoromethyl-phenyl)-amine], the pKi was over 6.00.

Molecule `C[C@@H]1C[C@H](C)CN(Cc2nc(Nc3ccc(C(F)(F)F)cc3)c3ncc(-c4ncccc4C(F)(F)F)cc3n2)C1` [Compound 668, [2-(3,5-Dimethyl-piperidin-1-ylmethyl)-7-(3-trifluoromethyl-pyridin-2-yl)-pyrido[3,2-d]pyrimidin-4-yl]-(4-trifluoromethyl-phenyl)-amine (cis)] showed a pKi of over 6.00.

`CC1CCCN(Cc2nc(Nc3ccc(C(F)(F)F)cc3)c3ncc(-c4ncccc4C(F)(F)F)cc3n2)C1` (centres unmarked) [Compound 669, [2-(3-Methyl-piperidin-1-ylmethyl)-7-(3-trifluoromethyl-pyridin-2-yl)-pyrido[3,2-d]pyrimidin-4-yl]-(4-trifluoromethyl-phenyl)-amine] showed a pKi of over 6.00.

Take `COCCN(CCOC)Cc1nc(Nc2ccc(C(F)(F)F)cc2)c2ncc(-c3ncccc3C(F)(F)F)cc2n1` [Compound 670, [2-{[Bis-(2-methoxy-ethyl)-amino]-methyl}-7-(3-trifluoromethyl-pyridin-2-yl)-pyrido[3,2-d]pyrimidin-4-yl]-(4-trifluoromethyl-phenyl)-amine]: the pKi was over 6.00.

The molecule `FC(F)(F)c1ccc(Nc2nc(CN3C=NCCC3)nc3cc(-c4ncccc4C(F)(F)F)ccc23)cc1` [Compound 671, [2-(5,6-Dihydro-4H-pyrimidin-1-ylmethyl)-7-(3-trifluoromethyl-pyridin-2-yl)-quinazolin-4-yl]-(4-trifluoromethyl-phenyl)-amine] had a pKi of over 6.00.

With `C[C@@H]1CN(Cc2nc(Nc3ccc(C(C)(C)C)cc3)c3ccc(-c4ncccc4Cl)cc3n2)CCO1` [Compound 672, (R)-(4-tert-Butyl-phenyl)-[7-(3-chloro-pyridin-2-yl)-2-(2-methyl-morpholin-4-ylmethyl)-quinazolin-4-yl]-amine], the pKi was over 6.00.

The molecule `CC(C)c1ccc(Nc2nc(CN3CCO[C@H](C)C3)nc3cc(-c4ncccc4Cl)ccc23)cc1` [Compound 673, (R)-[7-(3-Chloro-pyridin-2-yl)-2-(2-methyl-morpholin-4-ylmethyl)-quinazolin-4-yl]-(4-isopropyl-phenyl)-amine] gave a negative logarithm of the Ki (pKi) of over 6.00.

Turning to `C[C@@H]1CN(Cc2nc(Nc3ccc(C(F)(F)F)cc3)c3ccc(-c4ncccc4Cl)cc3n2)CCO1` [Compound 674, (R)-[7-(3-Chloro-pyridin-2-yl)-2-(2-methyl-morpholin-4-ylmethyl)-quinazolin-4-yl]-(4-trifluoromethyl-phenyl)-amine], the pKi is over 6.00.

In the case of `C[C@@H]1CN(Cc2nc(Nc3ccc(C(C)(C)C)cc3)c3ccc(-c4ccncc4)cc3n2)C[C@H](C)O1` [Compound 675, (4-tert-Butyl-phenyl)-[2-(2,6-dimethyl-morpholin-4-ylmethyl)-7-pyridin-4-yl-quinazolin-4-yl]-amine (cis)], the pKi is over 6.00.

`C[C@@H]1CN(Cc2nc(Nc3ccc(C(C)(C)C)cc3)c3ccc(-c4cccnc4)cc3n2)C[C@H](C)O1` [Compound 676, (4-tert-Butyl-phenyl)-[2-(2,6-dimethyl-morpholin-4-ylmethyl)-7-pyridin-3-yl-quinazolin-4-yl]-amine (cis)] had a pKi of over 6.00.

In the case of `C[C@@H]1CN(Cc2nc(Nc3ccc(C(C)(C)C)cc3)c3ccc(-c4cncnc4)cc3n2)C[C@H](C)O1` [Compound 677, (4-tert-Butyl-phenyl)-[2-(2,6-dimethyl-morpholin-4-ylmethyl)-7-pyrimidin-5-yl-quinazolin-4-yl]-amine (cis)], the negative logarithm of the Ki (pKi) is over 6.00.

`COc1ncc(-c2ccc3c(Nc4ccc(C(C)(C)C)cc4)nc(CN4C[C@@H](C)O[C@@H](C)C4)nc3c2)c(OC)n1` [Compound 678, (4-tert-Butyl-phenyl)-[7-(2,4-dimethoxy-pyrimidin-5-yl)-2-(2,6-dimethyl-morpholin-4-ylmethyl)-quinazolin-4-yl]-amine (cis)] had a negative logarithm of the Ki (pKi) of over 6.00.

`FC(F)(F)c1ccc(Nc2nc(C3CCNCC3)nc3cc(-c4ncccc4C(F)(F)F)ccc23)cc1` [Compound 679, [2-Piperidin-4-yl-7-(3-trifluoromethyl-pyridin-2-yl)-quinazolin-4-yl]-(4-trifluoromethyl-phenyl)-amine] had a pKi of over 6.00.

`CCC(C)c1ccc(Nc2nc(CN3C[C@@H](C)O[C@@H](C)C3)nc3cc(-c4ncccc4Cl)ccc23)cc1` (stereo partly drawn) [Compound 680, (4-sec-Butyl-phenyl)-[7-(3-chloro-pyridin-2-yl)-2-(2,6-dimethyl-morpholin-4-ylmethyl)-quinazolin-4-yl]-amine (cis)] showed a pKi of over 6.00.

`CC(C)c1ccc(Nc2nc(CN3C[C@@H](C)O[C@@H](C)C3)nc3cc(-c4ncccc4Cl)ccc23)cc1` [Compound 681, [7-(3-Chloro-pyridin-2-yl)-2-(2,6-dimethyl-morpholin-4-ylmethyl)-quinazolin-4-yl]-(4-isopropyl-phenyl)-amine (cis)] showed a negative-log Ki (pKi) of over 6.00.

On to `C[C@@H]1CN(Cc2nc(Nc3ccc(C(C)(C)C)cc3)c3ccc(-c4ncccc4C(F)(F)F)cc3n2)CCO1` [Compound 682, (R)-(4-tert-Butyl-phenyl)-[2-(2-methyl-morpholin-4-ylmethyl)-7-(3-trifluoromethyl-pyridin-2-yl)-quinazolin-4-yl]-amine], for which the negative-log Ki (pKi) was over 6.00.

With `C[C@@H]1CN(Cc2nc(Nc3ccc(C(F)(F)F)cc3)c3ccc(-c4ncccc4C(F)(F)F)cc3n2)CCO1` [Compound 683, (R)-[2-(2-Methyl-morpholin-4-ylmethyl)-7-(3-trifluoromethyl-pyridin-2-yl)-quinazolin-4-yl]-(4-trifluoromethyl-phenyl)-amine], the negative logarithm of the Ki (pKi) was over 6.00.

As to `CC(C)c1ccc(Nc2nc(CN3CCO[C@H](C)C3)nc3cc(-c4ncccc4C(F)(F)F)ccc23)cc1` [Compound 684, (R)-(4-Isopropyl-phenyl)-[2-(2-methyl-morpholin-4-ylmethyl)-7-(3-trifluoromethyl-pyridin-2-yl)-quinazolin-4-yl]-amine], the pKi was over 6.00.

Turning to `C[C@H]1CN(Cc2nc(Nc3ccc(C(C)(C)C)cc3)c3ccc(-c4ncccc4C(F)(F)F)cc3n2)CCO1` [Compound 685, (S)-(4-tert-Butyl-phenyl)-[2-(2-methyl-morpholin-4-ylmethyl)-7-(3-trifluoromethyl-pyridin-2-yl)-quinazolin-4-yl]-amine], the pKi is over 6.00.

The molecule `C[C@H]1CN(Cc2nc(Nc3ccc(C(F)(F)F)cc3)c3ccc(-c4ncccc4C(F)(F)F)cc3n2)CCO1` [Compound 686, (S)-[2-(2-Methyl-morpholin-4-ylmethyl)-7-(3-trifluoromethyl-pyridin-2-yl)-quinazolin-4-yl]-(4-trifluoromethyl-phenyl)-amine] had a negative-log Ki (pKi) of over 6.00.

As to `CC(C)c1ccc(Nc2nc(CN3CCO[C@@H](C)C3)nc3cc(-c4ncccc4C(F)(F)F)ccc23)cc1` [Compound 687, (S)-(4-Isopropyl-phenyl)-[2-(2-methyl-morpholin-4-ylmethyl)-7-(3-trifluoromethyl-pyridin-2-yl)-quinazolin-4-yl]-amine], the pKi is over 6.00.

`CC(C)c1ccc(Nc2nc(CN3C[C@@H](C)O[C@@H](C)C3)nc3cc(-c4ncccc4C(F)(F)F)ccc23)cc1` [Compound 688, [2-(2,6-Dimethyl-morpholin-4-ylmethyl)-7-(3-trifluoromethyl-pyridin-2-yl)-quinazolin-4-yl]-(4-isopropyl-phenyl)-amine (cis)]: the pKi is over 6.00.

The molecule `CCN1CCC(c2nc(Nc3ccc(C(F)(F)F)cc3)c3ccc(-c4ncccc4C(F)(F)F)cc3n2)CC1` [Compound 689, [2-(1-Ethyl-piperidin-4-yl)-7-(3-trifluoromethyl-pyridin-2-yl)-quinazolin-4-yl]-(4-trifluoromethyl-phenyl)-amine] gave a pKi of over 6.00.

The molecule `CCCN1CCC(c2nc(Nc3ccc(C(F)(F)F)cc3)c3ccc(-c4ncccc4C(F)(F)F)cc3n2)CC1` [Compound 690, [2-(1-Propyl-piperidin-4-yl)-7-(3-trifluoromethyl-pyridin-2-yl)-quinazolin-4-yl]-(4-trifluoromethyl-phenyl)-amine] showed a pKi of over 6.00.

As a reminder, the pKi is the negative decadic logarithm of the Ki, by convention in mol/L.
